Series [1] is described as follows: Luminescent dose response cell-based high throughput screening assay for inhibitors of the Janus kinase 2 mutant JAK2V617F. [Related pubchem assays: 1446 (Primary screen.), 1521 (Confirmation assay.), 1486 (Counter screen.)]. The format is functional.
Series [2] is described as follows: microbe, parasite or virus in culture. The format is functional. The conditions noted are these: Mycobacterium tuberculosis.
Series [3] is described as follows: Vero E6 cell cytotoxicity, dose response, cytotoxicity control for non-replicating M. tuberculosis project, secondary assay (AID 492998). The format is functional, VeroE6. The settings on record: Vero C1008.
Series [4] can be described thus: cells. The format is functional.
The target in series [5] is T1, Calpain-2 catalytic subunit (Sus scrofa, UniProt P43367).
T1 sequence (P43367 whole entry): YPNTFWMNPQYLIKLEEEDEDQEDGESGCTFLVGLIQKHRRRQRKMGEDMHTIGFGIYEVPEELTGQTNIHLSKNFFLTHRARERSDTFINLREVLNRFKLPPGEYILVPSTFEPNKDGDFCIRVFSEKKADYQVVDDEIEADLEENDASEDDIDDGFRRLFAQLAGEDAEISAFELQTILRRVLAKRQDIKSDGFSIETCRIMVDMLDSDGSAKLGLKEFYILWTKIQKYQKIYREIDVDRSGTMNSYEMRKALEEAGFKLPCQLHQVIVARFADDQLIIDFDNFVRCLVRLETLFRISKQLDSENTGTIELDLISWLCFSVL
Put plainly: pig calpain II inhibitor potency, dose response, biochemical, fluorogenic peptide substrate (AID 1420). The format is functional.

Series [6] is described as follows: Vero cell cytotoxicity, dose response, cytotoxicity control for Vif-APOBEC3G degradation inhibitor project, Vero cells (AID 1117358). The format is functional. The conditions noted are these: Human immunodeficiency virus 1, Vero.
Series [7] addresses Solute carrier family 12 member 2/member 5 (Homo sapiens, UniProt P55011+Q9H2X9). Put plainly: KCC2 and NKCC1 inhibition by rubidium flux, cell-based, NKCC1 counter-screen (AID 1734). The format is functional, HEK293.
Series [8] in a line: inhibitors of intracellular T. cruzi replication, confirmation, NIH3T3 host cells, beta-gal luminescence (AID 2044).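 Note: intracellular parasites grown in NIH/3T3 mouse fibroblasts as host cells; luminescent beta-galactosidase reporter signal from transgenic T. cruzi replicating inside host cells; inhibitors lower the luminescence signal.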 The format is functional, cell-based.
Series [9] is described as follows: cytotoxicity toward NIH3T3 fibroblasts, dose response, counter-screen, cell-based, ATP luminescence, mouse fibroblasts (AID 2010).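 Note: cells exposed to compound for about 90 hours before reading.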 The format is functional. (In general: A counterscreen serves to expose hits that act by an unwanted route or on another target.)
The nature of series [10]: cells.
Series [11] has as its target E3 ubiquitin-protein ligase Mdm2 (Homo sapiens, UniProt Q00987). Put plainly: enhancers of MDM2-luciferase reporter signal, concentration-effect titration, project on inhibitors of MDM2 ubiquitin ligase, cellular assay, luminescent readout, 384-well plate format (AID 1394).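 Note: MDM2 E3 inhibitors raise luminescence so EC50 is for signal enhancement.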 The format is functional. (In general: In a reporter assay the amount or activity of a reporter protein is the signal.)

A further series addresses Cytochrome P450 2C19 (Homo sapiens, UniProt P33261). Put plainly: Cytochrome panel assay with activity outcomes. Panel member name: p450-cyp2c19 Compounds with AC50 equal or less than 10 uM are considered active. The format is functional.
For series [12], the target named is T2, Tyrosine-protein phosphatase non-receptor type 7 (Homo sapiens, UniProt P35236).
T2 sequence (P35236 whole entry): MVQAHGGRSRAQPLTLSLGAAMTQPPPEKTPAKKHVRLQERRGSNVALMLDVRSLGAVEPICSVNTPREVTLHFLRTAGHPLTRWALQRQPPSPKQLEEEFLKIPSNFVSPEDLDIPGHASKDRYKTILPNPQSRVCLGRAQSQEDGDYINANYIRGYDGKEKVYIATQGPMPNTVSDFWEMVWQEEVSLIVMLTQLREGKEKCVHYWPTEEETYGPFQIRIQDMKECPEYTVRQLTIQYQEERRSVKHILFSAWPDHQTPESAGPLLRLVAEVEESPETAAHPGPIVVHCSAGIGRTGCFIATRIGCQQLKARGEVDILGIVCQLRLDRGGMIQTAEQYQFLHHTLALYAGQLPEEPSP
Put plainly: inhibitors of human HePTP phosphatase, […], biochemical, absorbance, leukemia target (AID 521). The format is functional.

Here are results for 6 molecules from ChEMBL document CHEMBL1201862, “PubChem BioAssay data set” (2004).

Molecules are shown by their SMILES. Activity calls are given as the source filed them.

Chain of Cytochrome P450 2C19 (P33261 whole entry): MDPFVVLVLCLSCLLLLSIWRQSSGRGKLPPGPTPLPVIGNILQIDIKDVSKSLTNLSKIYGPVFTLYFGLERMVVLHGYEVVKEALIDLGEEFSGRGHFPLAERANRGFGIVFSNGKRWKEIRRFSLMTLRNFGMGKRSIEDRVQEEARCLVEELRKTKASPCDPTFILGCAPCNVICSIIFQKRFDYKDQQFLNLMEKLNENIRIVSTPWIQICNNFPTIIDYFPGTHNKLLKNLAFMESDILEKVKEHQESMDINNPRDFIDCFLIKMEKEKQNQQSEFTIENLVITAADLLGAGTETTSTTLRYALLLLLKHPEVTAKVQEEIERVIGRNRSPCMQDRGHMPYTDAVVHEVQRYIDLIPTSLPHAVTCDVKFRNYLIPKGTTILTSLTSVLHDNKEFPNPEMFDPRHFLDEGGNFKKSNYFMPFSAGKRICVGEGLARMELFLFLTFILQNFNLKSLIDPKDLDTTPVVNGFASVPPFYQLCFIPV
Chain of E3 ubiquitin-protein ligase Mdm2 (Q00987 whole entry): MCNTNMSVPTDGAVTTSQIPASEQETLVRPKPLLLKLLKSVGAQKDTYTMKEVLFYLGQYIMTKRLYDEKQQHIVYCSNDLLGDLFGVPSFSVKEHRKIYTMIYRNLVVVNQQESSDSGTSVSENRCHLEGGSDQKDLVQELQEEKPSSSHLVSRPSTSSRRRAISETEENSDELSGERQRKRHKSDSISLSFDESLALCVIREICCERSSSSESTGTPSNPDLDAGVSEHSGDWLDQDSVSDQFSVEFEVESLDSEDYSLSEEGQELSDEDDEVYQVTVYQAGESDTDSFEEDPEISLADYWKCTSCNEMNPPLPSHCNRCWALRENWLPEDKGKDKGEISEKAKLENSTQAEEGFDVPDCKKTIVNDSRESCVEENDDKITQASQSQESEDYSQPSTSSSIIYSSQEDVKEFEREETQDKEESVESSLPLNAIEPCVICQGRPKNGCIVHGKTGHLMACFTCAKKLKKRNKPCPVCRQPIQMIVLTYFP

Consider `O=C(O)c1[nH]c(=O)[nH]c(=O)c1F`, for which the IC50 (in general, the point on the concentration scale where inhibition reaches its midpoint) in series [1] was 4.12 µM (active); in “cells [4]”, 5.96 µM (active). For the same molecule, the CC50 in [2] was > 40 µM (active); in series [3], > 20 µM (active).

For the molecule `Cc1ccc(Cl)cc1N1CCN(C(=O)Cc2cn(C)c3ccccc23)CC1`, in series [5], the 50% inhibitory concentration (IC50) was 6.39 µM (not active). Besides, the CC50 in [6] is > 40 µM (active).

Regarding `CCCn1c(N)c(C(=O)CSc2nnc(Cc3ccccc3)o2)c(=O)n(C)c1=O`, in [7], the 50% inhibitory concentration (IC50) is 1.6 µM (active).

`Cc1c(O)ccc2c(CN3CCN(Cc4ccccc4)CC3)cc(=O)oc12`: the EC50 – broadly, the concentration needed to bring the measured effect to its halfway point – in series [8] is < 0.1 µM (active); in series [9], > 60 µM (not active); in the series “cells [10]” it was 0.024 µM (active).

`CCN1CCN(C(=O)CCc2nc3ccccc3c(=O)[nH]2)CC1`: in [11], the half-maximal effective concentration (EC50) is on record as 12.5 µM (not active). The AC50 entry at Cytochrome P450 2C19 is “inconclusive”.

Regarding `O=C(Nc1cc(C(F)(F)F)ccc1Cl)C1CCN(c2nnc(-n3cccc3)s2)CC1`, the half-maximal inhibitory concentration (IC50) in [12] is on record as > 100 µM (not active).
